Common to all, as to assay: Bliss excess, mean over the matrix (fraction); higher = more synergy
Assay [1] deals with SK-LMS-1 (Other Solid Carcinomas). Put shortly:
(§1)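 Bliss excess equals the observed combination effect minus the expected value EA + EB − EA·EB, where EA and EB are the effects of each agent alone. Combination Emax is the second-highest inhibition within the matrix. Inhibition was scaled from CellTiter-Glo 2.0 luminescence, with 0 set by vehicle wells and 1 by blank wells, after 72 hours of two-drug dosing of cells plated in 1536-well plates.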

The test system of assay [2] is SLVL (B-Cell Non-Hodgkin's Lymphoma). The method in brief: as §1
In assay [3] the test system is MEG-01 (Chronic Myelogenous Leukemia). The method in brief:
as §1

The test system of assay [4] is BICR78 (Oral Cavity Carcinoma). The method in brief:
as §1

The test system of the next assay is EW-22 (Ewing's Sarcoma). The method in brief: as §1
Assay [5] relates to D-283MED (Other Solid Carcinomas). The method in brief: as §1
The test system of assay [6] is HLE (Hepatocellular Carcinoma). The method in brief:
as §1

The next assay deals with HCC38 (Breast Carcinoma). Put shortly:
as §1

Assay [7] has as its system TC-YIK (Other Solid Carcinomas). The method in brief:
as §1

A further assay has as its system Saos-2 (Osteosarcoma). Put shortly:
as §1

For assay [8], the system named is YT (Other Blood Carcinomas). Put shortly: as §1
In the next assay the test system is H4 (Low Grade Glioma). Put shortly: as §1
The subject of assay [9] is DOK (Oral Cavity Carcinoma). Put shortly: as §1
The subject of assay [10] is SK-UT-1 (Other Solid Carcinomas). The method in brief: as §1

Each structure is given as a SMILES string.

Turning to `C[C@@H](Oc1cc(-c2cnn(C3CCNCC3)c2)cnc1N)c1c(Cl)ccc(F)c1Cl` [Crizotinib] + Cn1cnc2c(F)c(Nc3ccc(Br)cc3Cl)c(C(=O)NOCCO)cc21 [Selumetinib] (first compound max 10 µM, 7x7, partner max 10 µM), the Bliss excess is 0.0367 in assay [1]; -0.0414 in assay [2]; 0.0179 in assay [3]; 0.0006 in assay [4]; -0.0226 with EW-22 (Ewing's Sarcoma); -0.0049 in [5]. In addition, the Bliss excess was 0.0014 in [6]; -0.0447 in the assay with HCC38 (Breast Carcinoma); -0.0663 in assay [7]; -0.0337 in the assay on Saos-2 (Osteosarcoma); -0.0587 in assay [8]; 0.0034 in the assay on H4 (Low Grade Glioma). Further, the Bliss excess in assay [9] stood at 0.017; in assay [10] it was 0.0041.
Turning to `O=C(c1cc(Cc2n[nH]c(=O)c3ccccc23)ccc1F)N1CCN(C(=O)C2CC2)CC1` [Olaparib] + CC1(C)CCC(CN2CCN(c3ccc(C(=O)NS(=O)(=O)c4ccc(NCC5CCOCC5)c([N+](=O)[O-])c4)c(Oc4cnc5[nH]ccc5c4)c3)CC2)=C(c2ccc(Cl)cc2)C1 [Venetoclax] (first compound max 10 µM, 7x7, partner max 1 µM), the Bliss excess in assay [1] was -0.012; in assay [2] it was 0.0864; in [3], -0.0377; in assay [4], -0.0733; in the assay on EW-22 (Ewing's Sarcoma), 0.0348; in [5] it was 0.0445. The Bliss excess was -0.0308 in assay [6]; -0.0247 with HCC38 (Breast Carcinoma); -0.0304 in assay [7]; -0.0289 in the assay on Saos-2 (Osteosarcoma); 0.0335 in assay [8]; -0.011 with H4 (Low Grade Glioma). The Bliss excess in [9] is -0.0426; in [10], 0.0047.
Regarding `O=C(c1cc(Cc2n[nH]c(=O)c3ccccc23)ccc1F)N1CCN(C(=O)C2CC2)CC1` [Olaparib] + CN(CC[C@H](CSC1=CC=CC=C1)NC2=C(C=C(C=C2)S(=O)(=O)NC(=O)C3=CC=C(C=C3)N4CCC(CC4)[C@H](C5=CC=CC=C5C6=CC=C(C=C6)Cl)O)S(=O)(=O)C(F)(F)F)CCO [AZD4320] (first compound max 10 µM, 7x7, partner max 1 µM), the Bliss excess in assay [1] was -0.0169; in assay [2], 0.0356; in assay [3], -0.009; in assay [4] it was -0.0656; in the assay with EW-22 (Ewing's Sarcoma) it was 0.0385; in assay [5] it was 0.0204. Besides, the Bliss excess was -0.0213 in [6]; -0.0541 with HCC38 (Breast Carcinoma); 0.0047 in [7]; -0.0312 with Saos-2 (Osteosarcoma); -0.0505 in [8]; 0.0106 with H4 (Low Grade Glioma). In addition, the values for the Bliss excess in [9] and in assay [10] were -0.101 and 0.0299, respectively.
As to `O=C(c1cc(Cc2n[nH]c(=O)c3ccccc23)ccc1F)N1CCN(C(=O)C2CC2)CC1` [Olaparib] + COc1nnc2ccc(N3CCC(c4ccc(OCCN5CCN(C)C(=O)[C@H]5C)cc4)CC3)nn12 [AZD5153] (first compound max 10 µM, 7x7, partner max 1 µM), the Bliss excess in assay [1] was -0.0329; in assay [2], 0.0142; in [3], -0.0579; in assay [4], -0.0458; in the assay on EW-22 (Ewing's Sarcoma), 0.0369; in [5], -0.0542. The Bliss excess in assay [6] was -0.0392; in the assay on HCC38 (Breast Carcinoma), -0.0793; in [7], -0.0784; in the assay on Saos-2 (Osteosarcoma) it was -0.02; in assay [8] it was -0.107; in the assay on H4 (Low Grade Glioma), -0.0248. Further, the Bliss excess in [9] was -0.0404; in assay [10], -0.02.
For the molecule `O=C(c1cc(Cc2n[nH]c(=O)c3ccccc23)ccc1F)N1CCN(C(=O)C2CC2)CC1` [Olaparib] + Cc1c2c(nn1C)CSCc1cc(n(C)n1)CSc1cc(c3ccccc3c1)OCCCc1c(C(=O)O)n(C)c3c-2c(Cl)ccc13 [AZD5991] (first compound max 10 µM, 7x7, partner max 1 µM), the Bliss excess in [1] is -0.0076; in assay [2], -0.0034; in assay [3], -0.0416; in [4], -0.0643; in the assay on EW-22 (Ewing's Sarcoma), -0.016; in assay [5] it was 0.0172. Moreover, the Bliss excess in assay [6] was -0.0144; with HCC38 (Breast Carcinoma), -0.0457; in [7], -0.0566; in the assay with Saos-2 (Osteosarcoma) it was -0.0087; in [8], 0.0191; in the assay on H4 (Low Grade Glioma) it was 0.0256. For the same molecule, the Bliss excess in [9] is -0.0192; in assay [10], -0.0141.
On to `N#Cc1cnc(Nc2cc(NC[C@H]3CNCCO3)c(C(F)(F)F)cn2)cn1` [SRA737] + C=CCn1c(=O)c2cnc(Nc3ccc(N4CCN(C)CC4)cc3)nc2n1-c1cccc(C(C)(C)O)n1 [AZD1775] (first compound max 10 µM, partner max 1 µM), for which the Bliss excess is 0.112 in assay [1]; 0.0581 in assay [2]; -0.0314 in [3]; -0.0326 in [4]; 0.0315 in the assay on EW-22 (Ewing's Sarcoma); 0.0779 in assay [5]. Moreover, the Bliss excess in [6] was 0.013; in the assay on HCC38 (Breast Carcinoma) it was 0.0088; in assay [7], 0.0278; with Saos-2 (Osteosarcoma), 0.0939; in assay [8], 0.0379; in the assay on H4 (Low Grade Glioma) it was 0.0327. In addition, the Bliss excess is -0.0139 in assay [9] and 0.0497 in assay [10].
Turning to `N#Cc1cnc(Nc2cc(NC[C@H]3CNCCO3)c(C(F)(F)F)cn2)cn1` [SRA737] + CCc1c2c(nc3ccc(O)cc13)-c1cc3c(c(=O)n1C2)COC(=O)[C@]3(O)CC [SN-38] (first compound max 10 µM, 7x7, partner max 0.3 µM), the Bliss excess in assay [1] is -0.0248; in [2], -0.0909; in assay [3] it was 0.0468; in assay [4], -0.0015; in the assay on EW-22 (Ewing's Sarcoma) it was -0.0592; in assay [5], -0.0395. The Bliss excess was -0.0755 in assay [6]; -0.049 with HCC38 (Breast Carcinoma); -0.0041 in [7]; -0.0303 in the assay with Saos-2 (Osteosarcoma); -0.0677 in assay [8]; -0.0029 with H4 (Low Grade Glioma). Further, the Bliss excess in assay [9] is -0.0531; in assay [10], -0.0033.
Turning to `N#Cc1cnc(Nc2cc(NC[C@H]3CNCCO3)c(C(F)(F)F)cn2)cn1` [SRA737] + Nc1ccn([C@@H]2O[C@H](CO)[C@@H](O)C2(F)F)c(=O)n1 [Gemcitabine] (first compound max 10 µM, 7x7, partner max 0.3 µM), the Bliss excess was 0.0202 in [1]; 0.0004 in [2]; -0.0324 in [3]; 0.068 in [4]; -0.0202 in the assay on EW-22 (Ewing's Sarcoma); 0.0135 in [5]. The Bliss excess was 0.029 in assay [6]; -0.0054 in the assay with HCC38 (Breast Carcinoma); -0.0605 in assay [7]; 0.0276 in the assay with Saos-2 (Osteosarcoma); 0.0694 in assay [8]; 0.0511 in the assay with H4 (Low Grade Glioma). For the same molecule, the Bliss excess was determined as 0.0191 in assay [9] and 0.0162 in [10].
Turning to `N#Cc1cnc(Nc2cc(NC[C@H]3CNCCO3)c(C(F)(F)F)cn2)cn1` [SRA737] + O=c1[nH]cc(F)c(=O)[nH]1 [5-Fluorouracil] (first compound max 10 µM, 7x7, partner max 20 µM), the Bliss excess is -0.0143 in assay [1]; -0.0551 in assay [2]; -0.0518 in assay [3]; 0.0904 in [4]; 0.0416 in the assay on EW-22 (Ewing's Sarcoma); -0.0048 in assay [5]. For the same molecule, the Bliss excess in [6] is -0.0146; with HCC38 (Breast Carcinoma) it was 0.0257; in assay [7], 0.0119; in the assay on Saos-2 (Osteosarcoma), -0.0179; in [8], 0.0012; in the assay with H4 (Low Grade Glioma), -0.0189. Moreover, the figures for the Bliss excess in [9] and in assay [10] were 0.0382 and -0.0052, respectively.
In the case of `CC1(C)CCC(CN2CCN(c3ccc(C(=O)NS(=O)(=O)c4ccc(NCC5CCOCC5)c([N+](=O)[O-])c4)c(Oc4cnc5[nH]ccc5c4)c3)CC2)=C(c2ccc(Cl)cc2)C1` [Venetoclax] + CS(=O)(=O)CCNCc1ccc(-c2ccc3ncnc(Nc4ccc(OCc5cccc(F)c5)c(Cl)c4)c3c2)o1 [Lapatinib] (first compound max 1 µM, 7x7, partner max 10 µM), the Bliss excess was -0.0127 in [1]; 0.017 in assay [2]; -0.0101 in assay [3]; -0.0451 in assay [4]; 0.0031 in the assay on EW-22 (Ewing's Sarcoma); -0.0416 in assay [5]. The Bliss excess in assay [6] is -0.0347; with HCC38 (Breast Carcinoma), -0.0355; in [7], -0.0035; in the assay on Saos-2 (Osteosarcoma) it was -0.0131; in assay [8], 0.0123; with H4 (Low Grade Glioma), -0.0188. Moreover, the Bliss excess in [9] is -0.0301; in assay [10] it was -0.0286.

The values are drawn from the supplement of paper PMC11061612.
